# Target: T1, G1 APOL1 (Homo sapiens, UniProt O14791, I384M/S342G)
# T1 construct: expressed in transfected cells
# T1 sequence (O14791 28-398 S342G/I384M): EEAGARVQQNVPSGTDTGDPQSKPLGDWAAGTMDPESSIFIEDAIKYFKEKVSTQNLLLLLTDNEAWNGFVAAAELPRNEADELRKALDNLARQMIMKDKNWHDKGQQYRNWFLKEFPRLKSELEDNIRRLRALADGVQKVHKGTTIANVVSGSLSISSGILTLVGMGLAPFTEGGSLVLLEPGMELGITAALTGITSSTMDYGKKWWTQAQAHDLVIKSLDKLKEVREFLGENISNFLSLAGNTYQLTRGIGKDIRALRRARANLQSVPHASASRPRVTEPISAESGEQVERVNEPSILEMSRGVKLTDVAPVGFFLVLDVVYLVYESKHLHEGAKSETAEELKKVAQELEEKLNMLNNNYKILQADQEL
# Assay: Acute APOL1 Thallium Assay with Inducible Stable Clones of HEK 293 Cells
# Assay type: cell-based
# Settings: HEK 293 inducible stable clones, G1 APOL1; read-out: Thallium Assay (IC50)
# Text: Acute APOL1 Thallium Assay with Inducible Stable Clones of HEK 293 Cells
# Apolipoprotein L1 (APOL1) proteins form potassium-permeable cation pores in the plasma membrane. APOL1 risk variants (G1 and G2) induce greater potassium flux than G0 in HEK293 cells. This assay exploits the permeability of thallium (Tl+) through ligand-gated potassium channels. The dye produces a bright fluorescent signal upon binding to Tl+ conducted through potassium channels. The intensity of the Tl+ signal is proportional to the number of potassium channels in the open state. Therefore, it provides a functional indication of the potassium channel activities. During the initial dye-loading step, the Tl+ indicator dye as an acetoxymethyl (AM) ester enters the cells through passive diffusion. Cytoplasm esterases cleave the AM ester and relieve its active thallium-sensitive form. The cells are then stimulated with Tl+. The increase of fluorescence in the assay represents the influx of Tl+ into the cell specifically through the potassium channel (i.e. through APOL1 pores), providing a functional measurement of potassium channel/pore activity. The Thallium assay is conducted with cells expressing G1 APOL1.
# APOL1 Cell Line (HEK T-Rex Stable Inducible Cell Line) • HEK T-Rex System • Tetracycline (Tet) inducible mammalian expression system. • Stably express the Tet repressor to regulate transcription. • Expression under the full-length CMV promoter. • APOL1 stable inducible cell line Clone used: G1 DC3.25
# Tissue Culture Media • Cell Culture Medium • DMEM+10% FBS+P/S+5 μg/mL blasticidin+1 μg/mL puromycin. • 500 mL DMEM+55 mL FBS+5 mL P/S+280 μL blasticidin S HCl (10 mg/mL)+56 μL puromycin (10 mg/mL). • Cell Assay Medium • DMEM with 2% FBS+penicillin/streptomycin.
# Instruments and Equipment • Nuaire cell culture hood, Cat. No. 540-600 • 37° C./5% CO2 incubator link to robotic arm, Liconic: STX110 • Molecular Devices FLIPR^Tetra High throughput cellular screening system, Cat. No. FT0324, Molecular Devices • ThermoFisher MultiDrop 384, Cat. No. 5840300 • Biotek Microfill, Cat. No. ASF1000A-4145 • BioRad TC10 cell counter, Cat. No. 145-0010
# Cells Scaled Up from Frozen Vials • APOL1 G1 3.25 (HEK293 T-Rex) frozen vials: 5 million cells per vial • Step 1, Day 1: Defrost frozen vial into T-225. • Step 2, Day 5: (when 85% confluent): Split one T-225 at 3×10^6 cells per flask. • Step 3, Day 8: Splits cells to set up for the assay plates as described below.
# T-Rex APOL1 HEK cells are split twice per week to keep the confluence state below 85% of the culture flask surface area. Cells can be kept until passage 25. • Cell Culture Medium • DMEM high glucose+10% FBS, +P/S, +5 μg/mL blasticidin, +1 μg/mL puromycin. • 500 mL DMEM, +55 mL FBS, +5 mL P/S, +280 μL blasticidin 10 mg/mL, +56 μL Puromycin 10 mg/mL. • Assay Media • Opti-MEM reduced serum medium from Invitrogen.
# Preparation of Cell Assay Plates • Culture medium is removed from the x cm^2 T-flask by aspiration. • The cell monolayer is rinsed with PBS 1× at room temperature. PBS is removed by aspiration. • Cells are trypsinized using Trypsin. • The flasks are incubated at room temperature for 2-3 minutes. • Complete DMEM medium is then added. Cell suspension is then transferred to a 50 mL Falcon polypropylene tube. • Cells are then counted using a BioRad TC10 cell counter and the required amount of cells are centrifuged at 1200 RPM for 5 minutes. Required amount is 1.3×10^6 cells/mL APOL1 T-Rex HEK cells. • The pellet is suspended in the assay medium. • Using the MultiDrop, add 20 μL to each well (corresponds to 26000 cells total per well) of a 384-well black, transparent, flat bottom Poly-D coated plate. • Tetracycline as prepared in the following section is added to the cells before plating to induce APOL1 expression. • Plates are left at room temperature for 20 to 30 minutes before incubation at 37° C. and 5% CO2. […]
row,SMILES,IC50 [nM]
1,"O=C(CCc1c(-c2ccccc2)[nH]c2ccc(F)cc12)N[C@@H](CO)C(F)F [Compound 235, N-[(1S)-2,2-difluoro-1-(hydroxymethyl)ethyl]-3-(5-fluoro-2-phenyl-1H-indol-3-yl)propanamide]",< 250
2,O=C(NCCc1c(-c2ccc(F)cc2)[nH]c2c(F)cc(F)cc12)c1cscn1 [Compound 385],> 1000
3,C[C@H](CO)NC(=O)NCCc1c(-c2ccc(F)cc2)[nH]c2c(F)cc(F)cc12 [Compound 282],250 to 1000
4,Nc1ncc(C(=O)NCCc2c(-c3ccc(F)cc3)[nH]c3c(F)cc(F)cc23)s1 [Compound 328],> 1000
5,C[C@@H](CO)N(C)C(=O)NCCc1c(-c2ccc(F)cc2)[nH]c2c(F)cc(F)cc12 [Compound 300],> 1000
6,Cc1cc(F)c2[nH]c(-c3ccc(F)cc3)c(CCC(=O)N[C@@H](C)CO)c2c1 [Compound 222],> 1000
7,CC1(C(=O)NCCc2c(-c3ccc(F)cc3)[nH]c3c(F)cc(F)cc23)CCC(=O)NC1 (centres unmarked) [Compound 319],> 1000
8,O=C(COc1cccnc1)NCCc1c(-c2ccc(F)cc2)[nH]c2c(F)cc(F)cc12 [Compound 373],> 1000
9,CCC(O)CNC(=O)OCCc1c(-c2ccc(F)cc2)[nH]c2c(F)cc(F)cc12 (centres unmarked) [Compound 472],250 to 1000
10,O=C(CN1CCCC1=O)NCCc1c(-c2ccc(F)cc2)[nH]c2c(F)cc(F)cc12 [Compound 375],> 1000
11,O=C(NCCc1c(-c2ccc(F)cc2)[nH]c2c(F)cc(F)cc12)C1CCCCC1O (centres unmarked) [Compound 326],250 to 1000
12,O=C(NCCc1c(-c2ccc(F)cc2)[nH]c2c(F)cc(F)cc12)NCc1cccc(O)c1 [Compound 264],> 1000
13,O=C(NC(CO)CF)OCCc1c(-c2ccc(F)cc2)[nH]c2c(F)cc(F)cc12 (centres unmarked) [Compound 471],250 to 1000
14,O=C1CC(C(=O)NCCc2c(-c3ccc(F)cc3)[nH]c3c(F)cc(F)cc23)CC(=O)N1 [Compound 320],> 1000
15,CC(O)CCNC(=O)NCCc1c(-c2ccc(F)cc2)[nH]c2c(F)cc(F)cc12 (centres unmarked) [Compound 278],> 1000
16,CC(C)(C)OC(=O)NCC(=O)NCCc1c(-c2ccc(F)cc2)[nH]c2c(F)cc(F)cc12 [Compound 317],> 1000
17,O=C1CC[C@@H](C(=O)NCCc2c(-c3ccc(F)cc3)[nH]c3c(F)cc(F)cc23)N1 [Compound 338],> 1000
18,CC(C)(O)CCNC(=O)OCCc1c(-c2ccc(F)cc2)[nH]c2c(F)cc(F)cc12 [Compound 458],250 to 1000
19,Cc1cc(CNC(=O)OCCc2c(-c3ccc(F)cc3)[nH]c3c(F)cc(F)cc23)on1 [Compound 492],> 1000
20,C[C@@H](CO)NC(=O)CCCc1c(-c2ccc(F)cc2)[nH]c2c(F)cc(F)cc12 [Compound 240],250 to 1000
21,O=S(=O)(NCCc1c(-c2ccc(F)cc2)[nH]c2c(F)cc(F)cc12)C1CCOCC1 [Compound 423],> 1000
22,NC(=O)C1(C(=O)NCCc2c(-c3ccc(F)cc3)[nH]c3c(F)cc(F)cc23)CC1 [Compound 339],250 to 1000
23,O=C(NCCc1c(-c2ccc(F)cc2)[nH]c2c(F)cc(F)cc12)[C@H]1CCOC1 [Compound 407],> 1000
24,CC[C@@H](CO)NC(=O)OCCc1c(-c2ccc(F)cc2)[nH]c2c(F)cc(F)cc12 [Compound 446],< 250

row,SMILES,IC50 [nM]
1,Cc1cc(F)c2[nH]c(-c3ccc(F)cc3)c(CCC(=O)NC(C#N)CO)c2c1 (centres unmarked) [Compound 215],250 to 1000
2,"O=C(/C=C/c1c(-c2ccc(F)cc2)[nH]c2c(F)ccc(F)c12)N[C@H]1CCNC1=O [Compound 520, (E)-3-[4,7-difluoro-2-(4-fluorophenyl)-1H-indol-3-yl]-N-[(3S)-2-oxopyrrolidin-3-yl]prop-2-enamide]",> 1000
3,O=C(NC1(CO)CCC1)OCCc1c(-c2ccc(F)cc2)[nH]c2c(F)cc(F)cc12 [Compound 436],< 250
4,O=C(NCCO)OCCc1c(-c2ccc(F)cc2)[nH]c2c(F)cc(F)cc12 [Compound 443],< 250
5,N#CC(NC(=O)OCCc1c(-c2ccc(F)cc2)[nH]c2c(F)cc(F)cc12)C(N)=O (centres unmarked) [Compound 456],250 to 1000
6,Cc1ccc(C(=O)NCCc2c(-c3ccc(F)cc3)[nH]c3c(F)cc(F)cc23)o1 [Compound 393],> 1000
7,O=C(NCCc1c(-c2ccc(F)cc2)[nH]c2c(F)cc(F)cc12)NCC1CCOCC1 [Compound 291],> 1000
8,O=C1CCC[C@@H](C(=O)NCCc2c(-c3ccc(F)cc3)[nH]c3c(F)cc(F)cc23)N1 [Compound 329],> 1000
9,O=C(CCc1c(-c2ccc(F)cc2)[nH]c2c(F)cc(Cl)cc12)N[C@@H](CO)C(F)(F)F [Compound 207],< 250
10,O=C(CCc1c(-c2ccc(F)cc2)[nH]c2c(F)cc(F)cc12)N[C@H]1C[C@H](O)C1 [Compound 159],> 1000
11,"C[C@@H]1NC(=O)N(CCc2c(-c3ccc(F)cc3)[nH]c3c(F)cc(F)cc23)C1=O [Compound 257, (5S)-3-[2-[5,7-difluoro-2-(4-fluorophenyl)-1H-indol-3-yl]ethyl]-5-methyl-imidazolidine-2,4-dione]",> 1000
12,O=C(NC(CO)CO)OCCc1c(-c2ccc(F)cc2)[nH]c2c(F)cc(F)cc12 [Compound 437],< 250
13,CC(C)(CF)C(=O)NCCc1c(-c2ccc(F)cc2)[nH]c2c(F)cc(F)cc12 [Compound 405],250 to 1000
14,C[C@]1(O)C[C@@H](NC(=O)OCCc2c(-c3ccc(F)cc3)[nH]c3c(F)cc(F)cc23)C1 [Compound 489],> 1000
15,O=C(NCC(F)F)OCCc1c(-c2ccc(F)cc2)[nH]c2c(F)cc(F)cc12 [Compound 449],< 250
16,CC(C)(O)C(=O)NCCc1c(-c2ccc(F)cc2)[nH]c2c(F)cc(F)cc12 [Compound 355],> 1000
17,O=C1CCC(C(=O)NCCc2c(-c3ccc(F)cc3)[nH]c3c(F)cc(F)cc23)CN1 (centres unmarked) [Compound 332],> 1000
18,CC(CC(N)=O)N(C)C(=O)NCCc1c(-c2ccc(F)cc2)[nH]c2c(F)cc(F)cc12 (racemic) [Compound 290],> 1000
19,O=C(CCc1c(-c2ccc(F)cc2)[nH]c2c(F)cc(Cl)cc12)NC(CO)CO [Compound 212],250 to 1000
20,O=C(NCCc1c(-c2ccc(F)cc2)[nH]c2c(F)cc(F)cc12)c1cccnc1 [Compound 401],> 1000
21,Cc1cc(F)c2[nH]c(-c3ccc(F)cc3)c(CCC(=O)NCC(N)=O)c2c1 [Compound 223],> 1000
22,O=C1NCC(C(=O)NCCc2c(-c3ccc(F)cc3)[nH]c3c(F)cc(F)cc23)O1 (centres unmarked) [Compound 337],> 1000
23,C[C@H](O)CC(=O)NCCc1c(-c2ccc(F)cc2)[nH]c2c(F)cc(F)cc12 [Compound 356],> 1000

# Source: US20230014907A1, “INHIBITORS OF APOL1 AND METHODS OF USING SAME” (Vertex Pharmaceuticals Incorporated, priority 2020, published 2023)
